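Assay format: 96-well plates, 48-hour exposure. Here, GI50 denotes the concentration required for 50% inhibition of growth. Definition used: TGI = concentration required for complete inhibition of growth.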
What was measured:
Assay in all cases: DTP human tumour cell line panel, 48 h
NCI-H460 lung = system: NCI-H460 lung
DU-145 prostate = system: DU-145 prostate
SK-MEL-5 melanoma = system: SK-MEL-5 melanoma
MALME-3M melanoma = system: MALME-3M melanoma
RXF 393 renal = system: RXF 393 renal
UACC-257 melanoma = system: UACC-257 melanoma
T-47D breast = system: T-47D breast
HCT-116 colon = system: HCT-116 colon
MDA-MB-435 = system: MDA-MB-435
A498 renal = system: A498 renal
OVCAR-8 ovarian = system: OVCAR-8 ovarian
SW-620 colon = system: SW-620 colon
HOP-92 NSCLC = system: HOP-92 NSCLC
SN12C renal = system: SN12C renal
SK-OV-3 ovarian = system: SK-OV-3 ovarian
SR leukemia = system: SR leukemia
A549 NSCLC = system: A549 NSCLC
HL-60(TB) leukemia = system: HL-60(TB) leukemia
ACHN renal = system: ACHN renal
SNB-19 CNS = system: SNB-19 CNS
KM12 colon = system: KM12 colon
OVCAR-3 ovarian = system: OVCAR-3 ovarian
MDA-MB-231 breast = system: MDA-MB-231 breast
M14 melanoma = system: M14 melanoma
SF-295 CNS = system: SF-295 CNS
LOX IMVI melanoma = system: LOX IMVI melanoma
IGROV1 ovarian = system: IGROV1 ovarian
MOLT-4 leukemia = system: MOLT-4 leukemia
RPMI-8226 leukemia = system: RPMI-8226 leukemia
NCI-H23 lung = system: NCI-H23 lung
TK-10 renal = system: TK-10 renal
SF-539 CNS = system: SF-539 CNS
786-0 renal = system: 786-0 renal
NCI-H522 lung = system: NCI-H522 lung
K-562 leukemia = system: K-562 leukemia
UACC-62 melanoma = system: UACC-62 melanoma
SK-MEL-2 melanoma = system: SK-MEL-2 melanoma
SNB-75 CNS = system: SNB-75 CNS
CAKI-1 renal = system: CAKI-1 renal
HCT-15 colon = system: HCT-15 colon
OVCAR-5 ovarian = system: OVCAR-5 ovarian
SK-MEL-28 melanoma = system: SK-MEL-28 melanoma
U251 CNS = system: U251 CNS
CCRF-CEM leukemia = system: CCRF-CEM leukemia
HOP-62 NSCLC = system: HOP-62 NSCLC
COLO 205 colon = system: COLO 205 colon
MCF7 breast = system: MCF7 breast
EKVX NSCLC = system: EKVX NSCLC
BT-549 breast = system: BT-549 breast
NCI-H226 lung = system: NCI-H226 lung
UO-31 renal = system: UO-31 renal
OVCAR-4 ovarian = system: OVCAR-4 ovarian
NCI/ADR-RES ovarian = system: NCI/ADR-RES ovarian
PC-3 prostate = system: PC-3 prostate
HS 578T breast = system: HS 578T breast
HT29 colon = system: HT29 colon
HCC-2998 colon = system: HCC-2998 colon
SF-268 CNS = system: SF-268 CNS

`CCCC(=O)NC(c1ccc2c(c1)OC(F)(F)O2)c1cc(C)c2cccnc2c1O` (centres undefined) was tested, and the GI50 (NCI-H460 lung) was 421 nM, the TGI (NCI-H460 lung) was over 100000 nM and the GI50 (DU-145 prostate) was 1780 nM. It also gave a TGI (DU-145 prostate) of over 100000 nM, a GI50 (SK-MEL-5 melanoma) of 714 nM and a TGI (SK-MEL-5 melanoma) of 2350 nM. For the same compound, the GI50 (MALME-3M melanoma) was 1080 nM, the TGI (MALME-3M melanoma) was over 26700 nM and the GI50 (RXF 393 renal) was 3170 nM. It also gave a TGI (RXF 393 renal) of over 47300 nM, a GI50 (UACC-257 melanoma) of 1300 nM and a TGI (UACC-257 melanoma) of over 28900 nM. It also gave a GI50 (T-47D breast) of 504 nM, a TGI (T-47D breast) of over 100000 nM and a GI50 (HCT-116 colon) of 509 nM. The TGI (HCT-116 colon) was over 100000 nM, the GI50 (MDA-MB-435) was 1090 nM and the TGI (MDA-MB-435) was over 100000 nM. The GI50 (A498 renal) was over 74700 nM, the TGI (A498 renal) was over 100000 nM and the GI50 (OVCAR-8 ovarian) was 406 nM. The TGI (OVCAR-8 ovarian) was over 100000 nM, the GI50 (SW-620 colon) was 695 nM and the TGI (SW-620 colon) was over 100000 nM. It also gave a GI50 (HOP-92 NSCLC) of 296 nM, a TGI (HOP-92 NSCLC) of 33400 nM and a GI50 (SN12C renal) of 886 nM. For the same compound, the TGI (SN12C renal) was over 100000 nM, the GI50 (SK-OV-3 ovarian) was 510 nM and the TGI (SK-OV-3 ovarian) was over 67500 nM. For the same compound, the GI50 (SR leukemia) was 436 nM, the TGI (SR leukemia) was over 100000 nM and the GI50 (A549 NSCLC) was 993 nM. The TGI (A549 NSCLC) was over 100000 nM, the GI50 (HL-60(TB) leukemia) was 391 nM and the TGI (HL-60(TB) leukemia) was over 100000 nM. The GI50 (ACHN renal) was 406 nM, the TGI (ACHN renal) was over 36600 nM and the GI50 (SNB-19 CNS) was 825 nM. The TGI (SNB-19 CNS) was over 100000 nM, the GI50 (KM12 colon) was 793 nM and the TGI (KM12 colon) was over 100000 nM. The GI50 (OVCAR-3 ovarian) was 437 nM, the TGI (OVCAR-3 ovarian) was over 100000 nM and the GI50 (MDA-MB-231 breast) was 565 nM. It also gave a TGI (MDA-MB-231 breast) of over 100000 nM, a GI50 (M14 melanoma) of 532 nM and a TGI (M14 melanoma) of 3820 nM. It also gave a GI50 (SF-295 CNS) of 691 nM, a TGI (SF-295 CNS) of over 100000 nM and a GI50 (LOX IMVI melanoma) of 451 nM. The TGI (LOX IMVI melanoma) was over 33400 nM, the GI50 (IGROV1 ovarian) was 453 nM and the GI50 (MOLT-4 leukemia) was 397 nM. It also gave a TGI (MOLT-4 leukemia) of over 100000 nM, a GI50 (RPMI-8226 leukemia) of 727 nM and a TGI (RPMI-8226 leukemia) of over 100000 nM. It also gave a GI50 (NCI-H23 lung) of 669 nM, a TGI (NCI-H23 lung) of over 100000 nM and a GI50 (TK-10 renal) of 1990 nM. The TGI (TK-10 renal) was over 100000 nM, the GI50 (SF-539 CNS) was 666 nM and the TGI (SF-539 CNS) was 12000 nM. It also gave a GI50 (786-0 renal) of 702 nM, a TGI (786-0 renal) of over 34500 nM and a GI50 (NCI-H522 lung) of 326 nM. For the same compound, the TGI (NCI-H522 lung) was over 32300 nM, the GI50 (K-562 leukemia) was 367 nM and the TGI (K-562 leukemia) was over 100000 nM. For the same compound, the GI50 (UACC-62 melanoma) was 275 nM, the TGI (UACC-62 melanoma) was 1970 nM and the GI50 (SK-MEL-2 melanoma) was 1280 nM. It also gave a TGI (SK-MEL-2 melanoma) of over 68700 nM, a GI50 (SNB-75 CNS) of 685 nM and a TGI (SNB-75 CNS) of 8430 nM. The GI50 (CAKI-1 renal) was 438 nM, the TGI (CAKI-1 renal) was 21400 nM and the GI50 (HCT-15 colon) was 353 nM. The TGI (HCT-15 colon) was over 100000 nM, the GI50 (OVCAR-5 ovarian) was 1730 nM and the TGI (OVCAR-5 ovarian) was over 100000 nM. For the same compound, the GI50 (SK-MEL-28 melanoma) was 637 nM, the TGI (SK-MEL-28 melanoma) was over 100000 nM and the GI50 (U251 CNS) was 473 nM. The TGI (U251 CNS) was over 84600 nM, the GI50 (CCRF-CEM leukemia) was 443 nM and the TGI (CCRF-CEM leukemia) was over 100000 nM. For the same compound, the GI50 (HOP-62 NSCLC) was 592 nM, the TGI (HOP-62 NSCLC) was over 100000 nM and the GI50 (COLO 205 colon) was 1260 nM. It also gave a TGI (COLO 205 colon) of over 100000 nM, a GI50 (MCF7 breast) of 419 nM and a TGI (MCF7 breast) of over 100000 nM. It also gave a GI50 (EKVX NSCLC) of 987 nM, a TGI (EKVX NSCLC) of over 100000 nM and a GI50 (BT-549 breast) of 918 nM. It also gave a TGI (BT-549 breast) of over 100000 nM, a GI50 (NCI-H226 lung) of 544 nM and a TGI (NCI-H226 lung) of over 22800 nM. The GI50 (UO-31 renal) was 218 nM, the GI50 (OVCAR-4 ovarian) was 446 nM and the TGI (OVCAR-4 ovarian) was over 100000 nM. For the same compound, the GI50 (NCI/ADR-RES ovarian) was 290 nM, the TGI (NCI/ADR-RES ovarian) was 4820 nM and the GI50 (PC-3 prostate) was 651 nM. It also gave a TGI (PC-3 prostate) of over 100000 nM, a GI50 (HS 578T breast) of 2190 nM and a TGI (HS 578T breast) of over 100000 nM. It also gave a GI50 (HT29 colon) of 492 nM, a TGI (HT29 colon) of over 100000 nM and a GI50 (HCC-2998 colon) of 780 nM. It also gave a TGI (HCC-2998 colon) of over 100000 nM, a GI50 (SF-268 CNS) of 690 nM and a TGI (SF-268 CNS) of over 100000 nM.

— PubChem BioAssay (NCI)
